Test results published in article PMC4342888, “A search for protein biomarkers links olfactory signal transduction to social immunity” (BMC Genomics, 2015).

Columns and labels:
[1] = target: T1, OBP21 (Apis mellifera, UniProt A0ACM8Q9Q6); test: biochemical; set-up: competitive fluorescence displacement of 2 uM 1-NPN from purified recombinant OBP (2 uM), Tris pH 7.4; settings: IC50 against 2 uM 1-NPN
T1 construct: purified recombinant protein
T1 sequence (A0ACM8Q9Q6 17-135): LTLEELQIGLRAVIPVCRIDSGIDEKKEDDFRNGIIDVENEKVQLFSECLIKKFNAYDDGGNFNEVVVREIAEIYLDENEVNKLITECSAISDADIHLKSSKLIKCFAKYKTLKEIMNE
Method: (§1) The probe was excited at 337 nm and emission spectra were recorded between 380 and 450 nm. […] For determining binding constants, the intensity values corresponding to the maximum of fluorescence emission were plotted against free ligand concentrations. Bound ligand was evaluated from the values of fluorescence intensity assuming that the protein was 100% active, with a stoichiometry of 1:1 protein:ligand at saturation. The curves were linearized using Scatchard plots. Dissociation constants of the competitors were calculated from the corresponding IC50 values (concentrations of ligands halving the initial fluorescence value of 1-NPN), using the equation: KD = [IC50]/1 + [1-NPN]/K1-NPN, [1-NPN] being the free concentration of 1-NPN and K1-NPN being the dissociation constant of the complex Protein/1-NPN.  Figure 7 Potential ligands of OBPs. Twenty nine potential ligands were tested in a competitive binding assay for their binding to OBP16, OBP18 and OBP21. Each purified recombinant protein was mixed with the fluorescent probe N-phenyl-1-naphthylamine (1-NPN), both at the concentration of 2 μM in Tris buffer. Each mixture was titrated with a ligand and the displacement of the fluorescent probe from the complex was used to evaluate the relative dissociation constants, as described in the Methods section. Compounds with higher affinities are shown in the top panel, while compound with lower affinity are shown in the lower panel.

[2] = target: T2, Odorant binding protein 16 (OBP16) (Apis mellifera, UniProt A0ACM8Q9Q1); test: biochemical; set-up: competitive fluorescence displacement of 2 uM 1-NPN from purified recombinant OBP (2 uM), Tris pH 7.4; settings: for IC50: IC50 against 2 uM 1-NPN; for Kd: KD calculated from IC50 of 1-NPN displacement
T2 construct: recombinant mature protein
T2 sequence (A0ACM8Q9Q1 17-135): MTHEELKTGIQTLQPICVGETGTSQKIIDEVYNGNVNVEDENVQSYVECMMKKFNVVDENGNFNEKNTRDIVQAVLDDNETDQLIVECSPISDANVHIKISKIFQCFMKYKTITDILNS
Method: as §1

[3] = target: T3, Odorant binding protein 18 (OBP18) (Apis mellifera, UniProt A0ACM8Q9Q2); test: biochemical; set-up: competitive fluorescence displacement of 2 uM 1-NPN from purified recombinant OBP (2 uM), Tris pH 7.4; settings: for IC50: IC50 against 2 uM 1-NPN; for Kd: KD calculated from IC50 of 1-NPN displacement
T3 construct: recombinant mature protein
T3 sequence (A0ACM8Q9Q2 17-135): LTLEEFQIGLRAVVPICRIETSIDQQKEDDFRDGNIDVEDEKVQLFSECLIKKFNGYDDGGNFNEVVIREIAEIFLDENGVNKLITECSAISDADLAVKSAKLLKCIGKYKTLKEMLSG
Method: as §1

[4] = target: T1, OBP21; test: biochemical; set-up: competitive fluorescence displacement of 1-NPN (2 uM) from recombinant OBP, emission 380-450 nm
Method: as §1

[5] = target: T1, OBP21; test: direct fluorescence titration of purified protein; format: binding
[6] = target: T3, Odorant binding protein 18 (OBP18); test: direct fluorescence titration of purified protein
[7] = target: T2, Odorant binding protein 16 (OBP16); test: direct fluorescence titration of purified protein

Structure (SMILES)	IC50 [1] [nM]	IC50 [2] [nM]	Kd [2] [nM]	IC50 [3] [nM]	Kd [3] [nM]	Kd [4] [nM]	Kd [5] [nM]	Kd [6] [nM]	Kd [7] [nM]
COc1ccccc1/C=C/C=O [2-Methoxycinnamaldehyde]	20000	20000	9200	3800	1700	33900	–	–	–
CC(C)=CCCC(C)CC=O (stereo not shown) [Citronellal]	8000	3500	1600	2500	1100	13600	–	–	–
CC(C)CCCC(C)CCO (stereo not shown) [3,7-dimethyloctanol]	2200	500	200	200	100	3700	–	–	–
CCCCCC(C)=O [2-Heptanone]	20000	18000	8300	2400	1100	33900	–	–	–
CC(=O)OCCc1ccccc1 [2-Phenylethyl acetate]	18000	8000	3700	2500	1100	30500	–	–	–
COc1cc(/C=C/CO)ccc1O [Coniferyl alcohol]	> 20000	18000	8300	3600	1600	–	–	–	–
c1ccc(Nc2cccc3ccccc23)cc1 [1-NPN, N-phenyl-1-naphthylamine]	–	–	–	–	–	–	1000 to 5000	1000 to 5000	1000 to 5000
O=C/C=C/c1ccccc1 [Cinnamaldehyde]	> 20000	20000	9200	3400	1500	–	–	–	–
C=CCc1ccc(O)c(OC)c1 [Eugenol]	> 20000	> 20000	–	2300	1000	–	–	–	–
OCc1ccccc1 [Benzyl alcohol]	> 20000	9800	4500	2500	1100	–	–	–	–
CC(C)=CCC/C(C)=C/C=O [Citral]	16000	4400	2000	1600	700	27100	–	–	–
OCCc1ccccc1 [2-Phenyl ethanol]	> 20000	> 20000	–	2500	1100	–	–	–	–
CC(C)CC(=O)O [3-Methylbutanoic acid]	> 20000	11000	5000	2500	1100	–	–	–	–
CCCCCCCCCCCC(=O)O [Dodecanoic acid]	10000	700	300	300	100	16900	–	–	–
Cc1ccccc1C=CC=O [2-Methylcinnamaldehyde]	18000	7000	3200	1200	500	30500	–	–	–
CC(=O)CCCCCCCC(=O)O [9-Ketodecanoic acid]	4000	3500	1600	1500	700	6800	–	–	–
CCCCCCCCCCCCCCCC(=O)OCC [Ethyl palmitate]	> 20000	1100	500	200	100	–	–	–	–

More lines, main results first:

IC50 [1] [nM]	IC50 [2] [nM]	Kd [2] [nM]	IC50 [3] [nM]	Kd [3] [nM]	Kd [4] [nM]	Structure (SMILES)	Kd [5] [nM]	Kd [6] [nM]	Kd [7] [nM]
> 20000	900	400	200	100	–	CCCCCCCCCCCCCCCC(=O)OC [Methyl palmitate]	–	–	–
> 20000	18000	8300	3200	1400	–	COc1cc(CC(=O)O)ccc1O [Homovanillic acid]	–	–	–
> 20000	1000	500	200	100	–	CCCCCCCCCCCCCCCCCC(=O)OC [Methyl stearate]	–	–	–
> 20000	1100	500	300	100	–	CC(C)=CCC/C(C)=C/CO [geraniol]	–	–	–
400	1000	400	100	100	600	CCCCCCCC/C=C\CCCCCCCC(N)=O [Oleamide]	–	–	–
300	900	400	100	40	400	CCCCCCCC/C=C\CCCCCCCC(=O)O [oleic acid]	–	–	–
1500	1800	800	1800	800	2500	CC(=O)CC/C=C(\C)CCC=C(C)C [Geranylacetone]	–	–	–
1800	200	100	200	100	3100	CC(=O)OC/C=C(\C)CCC=C(C)C [geranyl acetate]	–	–	–
5000	2500	1100	1900	800	8500	COC(=O)c1ccc(O)cc1 [Methyl p-hydroxybenzoate]	–	–	–
> 20000	2000	900	100	40	–	CCCCC/C=C\C/C=C\CCCCCCCC(=O)OC [Methyl linoleate]	–	–	–
> 20000	18000	8300	3000	1300	–	C=CC(C)(O)CCC=C(C)C (stereo not shown) [Linalool]	–	–	–
> 20000	1100	500	300	100	–	CCCCCCCCC(=O)O [Nonanoic acid]	–	–	–
> 20000	10500	4800	2700	1200	–	COc1cc(CCO)ccc1O [Homovanillic alcohol]	–	–	–
